Results on one molecule are retold here after publication PMC7385619, “A triple action CDK4/6-PI3K-BET inhibitor with augmented cancer cell cytotoxicity” (Cell Discovery, 2020).

One data set concerns the target T1, BRD2 (BD1) (Homo sapiens, UniProt P25440).
T1 construct: tagged bromodomains and acetylated histone peptides as; purchased Reaction Biology
The data set is described as follows: AlphaScreen bromodomain binding assay, BRD2 BD1. Particulars: Fig. 1b; italicized values from the literature (italics not visible).

The target in the next data set is T2, BRD2 (BD2) (Homo sapiens, UniProt P25440).
T2 construct: tagged bromodomains and acetylated histone peptides as; purchased Reaction Biology
The data set is described as follows: AlphaScreen bromodomain binding assay, BRD2 BD2. As to conditions: Fig. 1b; italicized values from the literature (italics not visible).

The target of the next data set is T3, BRD3 (BD1) (Homo sapiens, UniProt Q15059).
T3 construct: tagged bromodomains and acetylated histone peptides as; purchased Reaction Biology
The data set is described as follows: AlphaScreen bromodomain binding assay, BRD3 BD1. Particulars: Fig. 1b; italicized values from the literature (italics not visible).

A further data set deals with T4, BRD3 (BD2) (Homo sapiens, UniProt Q15059).
T4 construct: tagged bromodomains and acetylated histone peptides as; purchased Reaction Biology
In words: AlphaScreen bromodomain binding assay, BRD3 BD2. Particulars: Fig. 1b; italicized values from the literature (italics not visible).

For a further data set, the target named is T5, PI3Kδ (Homo sapiens, UniProt O00329).
T5 construct: purchased ThermoFisher Scientific
The data set is described as follows: In vitro kinase assay, PI3Kδ. The format is biochemical. Particulars: Fig. 1b; italicized values from the literature (italics not visible).

In another data set the target is T6, PI3Kγ (Homo sapiens, UniProt P48736).
T6 construct: purchased ThermoFisher Scientific
In words: In vitro kinase assay, PI3Kγ. As to conditions: Fig. 1b; italicized values from the literature (italics not visible). Format: biochemical.

The next data set has as its target mTOR (Homo sapiens, UniProt P42345). In words: In vitro kinase assay, mTOR. The format is biochemical. As to conditions: Fig. 1b; italicized values from the literature (italics not visible).
For the next data set, the target named is DNA-PK (Homo sapiens, UniProt P78527). The data set is described as follows: In vitro kinase assay, DNA-PK. Particulars: Fig. 1b; italicized values from the literature (italics not visible). The format is biochemical.
A further data set addresses T7, CDK2 (Homo sapiens, UniProt P24941).
T7 construct: purchased Reaction Biology
The data set is described as follows: In vitro kinase assay, CDK2. As to conditions: Fig. 1b; italicized values from the literature (italics not visible). Format: biochemical.

For a further data set, the target named is T8, CDK6 (Homo sapiens, UniProt Q00534).
T8 construct: purchased Reaction Biology
In words: In vitro kinase assay, CDK6. Particulars: Fig. 1b; italicized values from the literature (italics not visible). Format: biochemical.

The target of the next data set is T9, CDK9 (Homo sapiens, UniProt P50750).
T9 construct: purchased Reaction Biology
In words: In vitro kinase assay, CDK9. The format is biochemical. Particulars: Fig. 1b; italicized values from the literature (italics not visible).

The subject of data set [1] is Hepatocellular carcinoma cells (Hep3B, HepG2, and Huh7). The data set is described as follows: Cell viability (cytotoxicity) assay, hepatocellular carcinoma cells. Format: cell-based. As to conditions: Homo sapiens; 48 hours, CCK8 or Alamar Blue; curves of Fig. 1f-j; read-out: Half maximal inhibitory concentration (IC50) in cell line cytotoxicity assays, Hepatocellular Carcinoma.

Data set [2] deals with neuroblastoma cells (CHLA-255, CHLA-136, and SMS-KNCR). The data set is described as follows: Cell viability (cytotoxicity) assay, neuroblastoma cells. Particulars: Homo sapiens, 48 hours, CCK8 or Alamar Blue, curves of Fig. 1f-j, read-out: Half maximal inhibitory concentration (IC50) in cell line cytotoxicity assays, Neuroblastoma. The format is cell-based.
Data set [3] concerns NCI-60 Panel of Human Tumor Cell Line. Format: cell-based. As to conditions: 10 µM, one-dose assay.
In data set [4] the test system is pRb Ser780 (downstream surrogate of CDK4/6 activity). In words: Immunoblotting for Rb phosphorylation. Format: cell-based, human. As to conditions: Huh7, CHLA-255 and Jeko-1 cells, stimulated with 50 ng/mL IGF-1, increasing concentrations, 30 minutes. The text has this: (§1) from James Bradner (Dana-Farber Cancer Institute, Boston, MA). […]
(§2) from Novartis (Basel, Switzerland). Palbociclib was obtained from LC Laboratories (Woburn, MA). Recombinant human IGF-1 was from Peprotech (Rocky Hill, NJ). Antibodies specific for […]
(§3) Cell Signaling Technology (Beverly, MA). GAPDH antibody (GT239) was from GeneTex, Inc.
(§4) Molecular models were created to design and dock molecules in silico using the software engines AutoDock Vina1 and rDock2 and the crystal structures of BRD4 (PDB ID: 4CFK), PI3K (PDB ID: 4JPS) and CDK6 (PDB ID: 5L2T).
(§5) Bromodomain and kinase assays
(§6) Inhibition of BET family members was measured using Alpha Screen assays from Reaction Biology (Malvern, PA) with His -tagged bromodomains and acetylated histone peptides as ligands. CDK and PI3K isoform activities were measured using in vitro kinase assays from Reaction Biology and ThermoFisher Scientific (Waltham, MA), respectively. KINOME scan and BROMOscan assays were performed at Eurofins DiscoverX (Fremont, CA) with data analyzed […]
(§7) Protein expression and purification
(§8) BRD4 BD1 (aa 43-180) and BD2 (aa 342 -460) were expressed in E. coli BL21 (DE3) RIL in either Luria Broth or […] minimal media supplemented with 15NH4Cl. […]
(§9) or 100 µM in triplicate the following day. […] For CCK8, absorbance was measured at 450 nm; for Alamar Blue, fluorescence signals were read as emission at 590 nm after excitation at 560 nm. […]

For data set [5], the system named is pAKT Ser473 (downstream surrogate of PI3K activity). The data set is described as follows: Immunoblotting for Akt phosphorylation. Format: cell-based, human. As to conditions: Huh7, CHLA-255 and Jeko-1 cells, stimulated with 50 ng/mL IGF-1, increasing concentrations, 30 minutes.
Text: as §1, §2, §3, §4, §5, §6, §7, §8, §9

T2 sequence (P25440 344-453 limits assumed): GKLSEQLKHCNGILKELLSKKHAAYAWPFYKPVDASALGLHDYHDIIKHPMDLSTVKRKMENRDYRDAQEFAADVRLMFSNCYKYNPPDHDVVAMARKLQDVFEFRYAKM
T5 sequence (O00329 whole entry): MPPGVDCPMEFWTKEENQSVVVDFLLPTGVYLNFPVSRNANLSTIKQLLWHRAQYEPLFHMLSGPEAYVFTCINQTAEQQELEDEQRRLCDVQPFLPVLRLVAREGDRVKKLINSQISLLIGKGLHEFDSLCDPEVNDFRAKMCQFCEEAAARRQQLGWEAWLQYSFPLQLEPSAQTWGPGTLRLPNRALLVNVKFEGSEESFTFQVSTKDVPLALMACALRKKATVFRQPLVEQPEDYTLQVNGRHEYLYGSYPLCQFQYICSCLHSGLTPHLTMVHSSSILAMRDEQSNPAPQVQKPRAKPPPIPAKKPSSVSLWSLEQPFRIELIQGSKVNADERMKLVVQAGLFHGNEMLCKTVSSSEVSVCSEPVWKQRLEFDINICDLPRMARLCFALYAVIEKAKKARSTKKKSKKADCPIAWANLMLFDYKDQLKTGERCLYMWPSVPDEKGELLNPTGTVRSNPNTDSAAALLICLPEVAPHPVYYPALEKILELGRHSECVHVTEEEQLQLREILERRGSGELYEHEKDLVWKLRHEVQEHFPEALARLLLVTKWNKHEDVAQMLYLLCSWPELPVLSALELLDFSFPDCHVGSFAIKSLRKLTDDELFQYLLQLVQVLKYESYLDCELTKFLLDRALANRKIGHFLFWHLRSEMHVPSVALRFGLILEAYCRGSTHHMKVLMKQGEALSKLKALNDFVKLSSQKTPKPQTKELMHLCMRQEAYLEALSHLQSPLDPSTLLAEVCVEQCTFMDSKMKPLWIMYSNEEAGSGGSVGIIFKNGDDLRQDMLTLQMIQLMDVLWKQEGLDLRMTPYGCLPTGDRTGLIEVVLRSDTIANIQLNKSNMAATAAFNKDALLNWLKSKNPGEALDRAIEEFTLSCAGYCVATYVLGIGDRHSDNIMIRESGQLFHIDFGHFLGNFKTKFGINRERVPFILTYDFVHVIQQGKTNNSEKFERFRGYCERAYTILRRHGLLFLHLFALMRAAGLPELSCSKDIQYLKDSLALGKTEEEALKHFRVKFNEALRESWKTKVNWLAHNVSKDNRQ
T5 sequence (P27986 whole entry partner): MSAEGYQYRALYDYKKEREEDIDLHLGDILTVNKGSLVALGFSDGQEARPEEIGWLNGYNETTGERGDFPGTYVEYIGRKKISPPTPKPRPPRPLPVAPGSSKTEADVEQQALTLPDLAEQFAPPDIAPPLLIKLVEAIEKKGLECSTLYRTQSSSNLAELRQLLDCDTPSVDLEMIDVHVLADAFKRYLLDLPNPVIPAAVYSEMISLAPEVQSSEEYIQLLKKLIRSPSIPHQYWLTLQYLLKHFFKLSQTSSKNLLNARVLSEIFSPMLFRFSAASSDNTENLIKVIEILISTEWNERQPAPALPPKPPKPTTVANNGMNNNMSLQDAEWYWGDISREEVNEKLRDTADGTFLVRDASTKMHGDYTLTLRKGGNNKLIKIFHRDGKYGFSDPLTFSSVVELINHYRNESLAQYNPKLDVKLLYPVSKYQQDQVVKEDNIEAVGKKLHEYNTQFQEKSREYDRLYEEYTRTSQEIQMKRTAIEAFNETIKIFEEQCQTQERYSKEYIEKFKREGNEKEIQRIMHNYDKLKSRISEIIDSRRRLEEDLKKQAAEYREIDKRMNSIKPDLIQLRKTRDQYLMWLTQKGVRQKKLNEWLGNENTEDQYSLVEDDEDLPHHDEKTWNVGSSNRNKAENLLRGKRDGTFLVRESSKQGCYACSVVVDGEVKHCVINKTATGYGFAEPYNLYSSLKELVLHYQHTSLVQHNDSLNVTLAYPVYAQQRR
T4 sequence (Q15059 306-415 limits assumed): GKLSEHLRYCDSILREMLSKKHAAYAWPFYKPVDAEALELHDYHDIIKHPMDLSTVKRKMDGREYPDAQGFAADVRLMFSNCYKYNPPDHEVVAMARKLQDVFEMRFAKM
T6 sequence (P48736 whole entry): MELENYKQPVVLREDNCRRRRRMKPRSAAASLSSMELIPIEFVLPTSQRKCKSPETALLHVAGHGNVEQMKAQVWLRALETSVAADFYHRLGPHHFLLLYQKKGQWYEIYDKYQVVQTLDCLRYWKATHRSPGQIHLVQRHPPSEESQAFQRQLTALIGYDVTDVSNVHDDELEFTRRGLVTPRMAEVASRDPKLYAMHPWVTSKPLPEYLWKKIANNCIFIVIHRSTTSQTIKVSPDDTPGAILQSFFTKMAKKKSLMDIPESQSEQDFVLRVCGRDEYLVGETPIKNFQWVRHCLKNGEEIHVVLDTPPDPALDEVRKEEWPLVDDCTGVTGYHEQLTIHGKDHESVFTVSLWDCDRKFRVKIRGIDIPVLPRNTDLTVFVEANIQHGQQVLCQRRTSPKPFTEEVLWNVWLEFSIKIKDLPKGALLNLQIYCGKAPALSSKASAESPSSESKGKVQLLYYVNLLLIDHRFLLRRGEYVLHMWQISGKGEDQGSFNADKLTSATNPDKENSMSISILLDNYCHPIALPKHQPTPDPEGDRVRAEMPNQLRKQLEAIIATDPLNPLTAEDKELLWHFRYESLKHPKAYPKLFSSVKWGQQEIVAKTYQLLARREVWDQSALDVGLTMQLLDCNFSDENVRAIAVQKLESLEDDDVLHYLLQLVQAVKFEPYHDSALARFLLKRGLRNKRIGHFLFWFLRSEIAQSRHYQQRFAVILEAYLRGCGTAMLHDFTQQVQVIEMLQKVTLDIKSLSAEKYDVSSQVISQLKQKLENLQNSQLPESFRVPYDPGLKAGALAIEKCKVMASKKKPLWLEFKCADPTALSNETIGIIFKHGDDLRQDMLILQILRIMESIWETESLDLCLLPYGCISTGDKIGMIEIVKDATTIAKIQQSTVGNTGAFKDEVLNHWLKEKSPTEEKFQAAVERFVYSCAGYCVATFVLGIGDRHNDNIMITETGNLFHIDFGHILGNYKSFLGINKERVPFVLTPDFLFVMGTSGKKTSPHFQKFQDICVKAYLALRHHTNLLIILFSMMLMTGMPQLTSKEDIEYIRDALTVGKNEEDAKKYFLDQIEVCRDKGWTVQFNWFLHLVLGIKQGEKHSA
T1 sequence (P25440 74-180 limits assumed): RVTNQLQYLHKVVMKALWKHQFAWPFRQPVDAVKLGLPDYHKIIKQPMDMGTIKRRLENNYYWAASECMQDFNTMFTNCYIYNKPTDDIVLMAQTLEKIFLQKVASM
T9 sequence (P50750 whole entry): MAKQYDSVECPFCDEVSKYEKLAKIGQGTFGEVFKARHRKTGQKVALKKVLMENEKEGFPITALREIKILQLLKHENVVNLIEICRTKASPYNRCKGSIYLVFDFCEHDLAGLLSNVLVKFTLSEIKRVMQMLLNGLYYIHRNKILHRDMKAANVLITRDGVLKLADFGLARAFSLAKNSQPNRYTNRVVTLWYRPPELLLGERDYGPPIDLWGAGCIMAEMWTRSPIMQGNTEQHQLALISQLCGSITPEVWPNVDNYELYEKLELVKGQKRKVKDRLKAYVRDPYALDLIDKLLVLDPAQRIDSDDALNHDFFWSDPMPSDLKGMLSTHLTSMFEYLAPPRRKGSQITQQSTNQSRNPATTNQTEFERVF
T9 sequence (O60563 whole entry partner): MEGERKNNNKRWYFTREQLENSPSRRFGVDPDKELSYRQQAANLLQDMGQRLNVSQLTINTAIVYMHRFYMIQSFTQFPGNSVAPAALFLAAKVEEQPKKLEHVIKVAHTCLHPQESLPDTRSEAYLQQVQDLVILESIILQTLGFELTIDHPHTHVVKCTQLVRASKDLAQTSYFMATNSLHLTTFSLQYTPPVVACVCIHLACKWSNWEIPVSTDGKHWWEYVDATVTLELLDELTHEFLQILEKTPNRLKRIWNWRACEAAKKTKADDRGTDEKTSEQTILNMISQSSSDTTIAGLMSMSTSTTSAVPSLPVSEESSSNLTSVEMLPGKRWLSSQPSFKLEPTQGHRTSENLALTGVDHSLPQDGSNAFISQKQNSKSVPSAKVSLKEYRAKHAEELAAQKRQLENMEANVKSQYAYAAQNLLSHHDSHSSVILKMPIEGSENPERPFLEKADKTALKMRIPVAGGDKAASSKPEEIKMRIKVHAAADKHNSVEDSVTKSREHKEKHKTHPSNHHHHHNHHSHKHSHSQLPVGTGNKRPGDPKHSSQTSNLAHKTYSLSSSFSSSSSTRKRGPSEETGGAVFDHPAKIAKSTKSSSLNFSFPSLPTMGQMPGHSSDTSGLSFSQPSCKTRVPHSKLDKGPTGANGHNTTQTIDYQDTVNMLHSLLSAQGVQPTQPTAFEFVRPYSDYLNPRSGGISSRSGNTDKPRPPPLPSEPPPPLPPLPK
T3 sequence (Q15059 34-140 limits assumed): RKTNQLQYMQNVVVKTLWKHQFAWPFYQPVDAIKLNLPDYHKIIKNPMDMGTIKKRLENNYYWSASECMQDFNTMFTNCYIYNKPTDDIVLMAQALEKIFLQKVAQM

In the case of `CN(C)C(=O)c1cc2cnc(Nc3ccc(-c4csc5c(=O)cc(N6CCOCC6)oc45)cc3)nc2n1C1CCCC1` [SRX3177], the IC50 at BRD2 (BD1) was 1410 nM; on BRD2 (BD2), 994 nM; on BRD3 (BD1), 106 nM; at BRD3 (BD2), 226 nM; against PI3Kδ, 83 nM; against PI3Kγ, 3180 nM. The IC50 against mTOR was 6910 nM; against DNA-PK, 21 nM; on CDK2, 500 nM; on CDK6, 3.3 nM; at CDK9 it was under 2 nM; in data set [1], 640 nM. In data set [2], the IC50 is 550 nM. The “cytotoxic effect in the NCI-60 panel” value in data set [3] is recorded as “cytotoxic effects on the majority of the cell lines tested”. Moreover, in data set [3] (NCI-60 panel), the “tumor cytotoxicity compared to SF2523 or SRX3177P” value is “greater tumor cytotoxicity”. Also, the “levels of Rb phosphorylation” value in [4] is on record as “decrease in levels of Rb phosphorylation”. Also, the “levels of Akt phosphorylation” value in [5] is on record as “decrease in levels”.
